{"source": "patent US10428044B2", "about": "“3-amino-1,5,6,7-tetrahydro-4H-indol-4-ones” (Bayer Pharma Aktiengesellschaft, priority 2014, dated 2019)", "note": "Counter-ions that a name gives are not always drawn.", "data": [{"molecular_target": "(recombinant) catalytic domain of human Bub1 (amino acids 704-1085) (Homo sapiens (Human), UniProt O43683)", "sequence (O43683 704-1085)": "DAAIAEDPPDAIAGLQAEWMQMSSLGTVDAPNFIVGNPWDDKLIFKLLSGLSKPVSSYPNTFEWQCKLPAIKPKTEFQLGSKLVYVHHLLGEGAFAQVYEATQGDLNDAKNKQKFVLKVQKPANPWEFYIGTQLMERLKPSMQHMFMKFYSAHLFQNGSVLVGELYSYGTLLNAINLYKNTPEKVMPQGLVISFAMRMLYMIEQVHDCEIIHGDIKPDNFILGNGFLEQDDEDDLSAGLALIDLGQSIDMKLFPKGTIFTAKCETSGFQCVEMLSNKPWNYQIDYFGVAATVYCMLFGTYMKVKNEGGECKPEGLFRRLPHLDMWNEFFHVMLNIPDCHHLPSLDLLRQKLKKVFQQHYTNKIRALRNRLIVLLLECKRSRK", "assay": "Bub1 kinase assay (TR-FRET)", "type": "biochemical", "conditions": "ATP 10 μM final, peptide substrate 1 μM final, 60 min at 22° C., read-out: Biological Assay: Bub1 kinase assay median IC50", "summary_of_the_method": "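Compounds were serially diluted 1:3.4 from 2 mM DMSO stocks and incubated with the enzyme reaction for 60 min at 22° C. The reaction was stopped with EDTA, and biotinylated peptide phosphorylation was read by TR-FRET using Eu anti-mouse IgG, anti-phosphoserine antibody and streptavidin-XL665. IC50 was fitted by 4-parameter logistic to inhibition normalized to no-inhibitor and no-enzyme controls.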", "units": {"IC50": "nM"}, "values": [{"smiles": "CCCn1c2c(c(Nc3ccccc3)c1-c1ccncc1)C(=O)CC(C)(C)C2", "note": "[Example 182, 6,6-dimethyl-3-(phenylamino)-1-propyl-2-(pyridin-4-yl)-1,5,6,7-tetrahydro-4H-indol-4-one]", "IC50": 68.9}, {"smiles": "CC1(C)CC(=O)c2c(Nc3ccccc3)c(-c3ccncc3)n(CCO)c2C1", "note": "[Example 184, 1-(2-hydroxyethyl)-6,6-dimethyl-3-(phenylamino)-2-(pyridin-4-yl)-1,5,6,7-tetrahydro-4H-indol-4-one]", "IC50": 200}, {"smiles": "CC1(C)CC(=O)c2c(Nc3ccccc3)c(-c3ccncc3)n(CC(N)=O)c2C1", "note": "[Example 185, 2-[3-anilino-6,6-dimethyl-4-oxo-2-(pyridin-4-yl)-4,5,6,7-tetrahydro-1H-indol-1-yl]acetamide formic acid salt]", "IC50": 1300}, {"smiles": "CC1(C)CC(=O)c2c(Nc3ccccc3)c(-c3ccncc3)n(Cc3ccccc3)c2C1", "note": "[Example 186, 1-benzyl-6,6-dimethyl-3-(phenylamino)-2-(pyridin-4-yl)-1,5,6,7-tetrahydro-4H-indol-4-one]", "IC50": 2940}, {"smiles": "CCn1c2c(c(Nc3ccccc3)c1-c1ccnc(NC(C)=O)c1)C(=O)CC(C)(C)C2", "note": "[Example 187, N-{4-[1-ethyl-6,6-dimethyl-4-oxo-3-(phenylamino)-4,5,6,7-tetrahydro-1H-indol-2-yl]pyridin-2-yl}acetamide]", "IC50": 52.3}, {"smiles": "CC1(C)CC(=O)c2c(Nc3ccccc3)c(-c3ccncc3)n(CC(F)F)c2C1", "note": "[Example 188, 1-(2,2-difluoroethyl)-6,6-dimethyl-3-(phenylamino)-2-(pyridin-4-yl)-1,5,6,7-tetrahydro-4H-indol-4-one]", "IC50": 50.6}, {"smiles": "CC(C)[n+]1ccc(-c2[nH]c3c(c2Nc2ccccc2)C(=O)CC(C)(C)C3)cc1", "note": "[Example 189, 4-[6,6-dimethyl-4-oxo-3-(phenylamino)-4,5,6,7-tetrahydro-1H-indol-2-yl]-1-(propan-2-yl)pyridinium iodide]", "IC50": 259}, {"smiles": "CC1(C)CC(=O)c2c([nH]c(-c3cc[n+](CC(F)(F)F)cc3)c2Nc2ccccc2)C1", "note": "[Example 190, 4-[6,6-dimethyl-4-oxo-3-(phenylamino)-4,5,6,7-tetrahydro-1H-indol-2-yl]-1-(2,2,2-trifluoroethyl)pyridinium trifluoromethanesulfonate]", "IC50": 475}, {"smiles": "CC1(C)CC(=O)c2c([nH]c(-c3cc[n+](CCCO)cc3)c2Nc2ccccc2)C1", "note": "[Example 191, 4-[6,6-dimethyl-4-oxo-3-(phenylamino)-4,5,6,7-tetrahydro-1H-indol-2-yl]-1-(3-hydroxypropyl)pyridinium iodide]", "IC50": 326}, {"smiles": "CC1(C)CC(=O)c2c([nH]c(-c3cc[n+](CC(F)F)cc3)c2Nc2ccccc2)C1", "note": "[Example 192, 4-[6,6-dimethyl-4-oxo-3-(phenylamino)-4,5,6,7-tetrahydro-1H-indol-2-yl]-1-(2,2-difluoroethyl)pyridinium trifluoromethanesulfonate]", "IC50": 1280}, {"smiles": "COC(=O)C[n+]1ccc(-c2[nH]c3c(c2Nc2ccccc2)C(=O)CC(C)(C)C3)cc1", "note": "[Example 193, 4-[6,6-dimethyl-4-oxo-3-(phenylamino)-4,5,6,7-tetrahydro-1H-indol-2-yl]-1-(2-methoxy-2-oxoethyl)pyridinium bromide]", "IC50": 921}, {"smiles": "CC1(C)C/C(=N\\O)c2c([nH]c(-c3ccncc3)c2Nc2ccccc2)C1", "note": "[Example 194, 4-(hydroxyimino)-6,6-dimethyl-N-phenyl-2-(pyridin-4-yl)-4,5,6,7-tetrahydro-1H-indol-3-amine]", "IC50": 42}, {"smiles": "CC(=O)O/N=C1\\CC(C)(C)Cc2[nH]c(-c3ccncc3)c(Nc3ccccc3)c21", "note": "[Example 195, 1-({(E)-[6,6-dimethyl-3-(phenylamino)-2-(pyridin-4-yl)-1,5,6,7-tetrahydro-4H-indol-4-ylidene]amino}oxy)ethanone]", "IC50": 102}, {"smiles": "O=C1CCCc2[nH]c(-c3ccncc3Br)c(Nc3ccccc3)c21", "note": "[Example 196, 2-(3-bromopyridin-4-yl)-3-(phenylamino)-1,5,6,7-tetrahydro-4H-indol-4-one]", "IC50": 36.5}]}]}
